From patent publication US20080241080A1, “COMPOSITION FOR TREATING XEROSTOMIA OR DRY MOUTH” (BIOCOSMETICS, S.L., priority 2007, published 2008)

Assay: Dentin loss under extreme erosion conditions, composition versus its three ingredients separately (Example 8)
Design: species or system cow
Conditions: 10 cycles: 5 min pre-treatment, 1% citric acid pH 2.3 for 3 min; vs distilled water
Procedure: The protective capacity of a mouthwash formulated with olive oil, trimethylglycine and xylitol in dentin subjected to extreme erosion conditions was analysed, compared to that of aqueous solutions of the three ingredients separately in the same concentrations used in the mouthwash tested. For the evaluation of effects a control was included consisting of distilled water.
Incisive teeth extracted from a cow's jaw were used, which were immersed in a 0.5% thymol solution at room temperature. The teeth were sectioned at the cementum-enamel junction by means of a water-cooled diamond scalpel (Exakt, Norderstedt, Germany), and the crowns and roots were embedded in acrylic resin cylinders (Paladur, Heraeus Kulzer, Wehrheim, Germany). Radicular cementum was completely eliminated. […]
Dentin loss was quantified performing profile or profilometric measurements (Mahr Perthometer, Göttingen, Germany). […] After the experiment the adhesive tapes were removed and the samples were analysed again. The average depth of the eroded surfaces was thus calculated with respect to basic surface profiles by means of specific software (Mahr Perthometer Concept 7.0, Mahr, Göttingen, Germany).
Dentin loss was calculated (mean±standard deviation) for each group and statistically analysed by Student's t test followed by Bonferroni's t test for multiple comparisons (Statistica 6.0, Statsoft, Tulsa, USA).

Row | Structure (SMILES) | protective effect on dentin against erosion
1 | OC[C@@H](O)[C@H](O)[C@@H](O)CO [1% xylitol solution, xylitol] | did not demonstrate any protective effect
2 | C[N+](C)(C)CC(=O)[O-] [2% trimethylglycine solution, trimethylglycine] | did not demonstrate any protective effect
